Values after ≈ are worked out from the molar mass of the structure shown. Active and inactive are the calls of the source. No cut-off for these calls is given here.
Key:
Candida albicans [1] = experiment: (§1) Synergetic antifungal activity against Candida albicans 0304103 assessed as microbial growth inhibition incubated for 24 hrs in the presence of SAHA by checkerboard microdilution method; assay type: functional
[Candida] auris [2] = (§2) Synergetic antifungal activity against Candida auris 0029 assessed as microbial growth inhibition incubated for 24 hrs in the presence of (S)-4-((2-(6-(4-Chlorophenyl)-1-methyl-7,8,9,10-tetrahydro-4H-benzo-(4,5)thieno[3,2-f][1,2,4]triazolo(4,3-a)(1,4)diazepin-4-yl)-acetamido)-methyl)-N-hydroxybenzamide by checkerboard microdilution method; assay type: functional; conditions: Candidozyma auris
Candida albicans [3] = experiment: microbe, parasite or virus in culture; assay type: functional; conditions: 0304103
Description: Antifungal activity against Candida albicans 0304103 assessed as microbial growth inhibition

Candida albicans [4] = experiment: as §1, with “(S,E)-3-(4-(2-(8-Chloro-6-(2-chlorophenyl)-1-methyl-4H-benzo-[f][1,2,4]triazolo[4,3-a](1,4)diazepin-4-yl)acetamido)pheny1)-N-hydroxy-acrylamide” for “SAHA”; assay type: functional
Nakaseomyces glabratus = experiment: Antifungal activity against Candida glabrata 4408 assessed as microbial growth inhibition; assay type: functional
[Candida] auris [5] = as §2, with “0030” for “0029”; assay type: functional; conditions: Candidozyma auris
Candida albicans [6] = experiment: as §1, with “(S,E)-N-Hydroxy-3-(4-(2-(l-methyl-6-phenyl-4H-benzo[f][1,2,4]-triazolo[4,3-a][1,4]diazepin-4-y1)acetamido)phenyl)acrylamide” for “SAHA”; assay type: functional
Candida albicans [7] = experiment: as §1, with “(S)-N-Hydroxy-2-(4-(2-(1-methyl-6-(p-toly1)-4H-benzo[f](1,2,4)-triazolo[4,3-a][1,4]diazepin-4-yl)acetamido)phenyl)acetamideby” for “SAHA by”; assay type: functional
Candida albicans [8] = experiment: Antibiofilm activity against FLC-resistant Candida albicans 0304103 assessed as reduction in fungal growth at 32 ug/mL and measured for 48 hrs by time-growth curve assay; assay type: functional, organism-based; conditions: dose 32.0 µg/ml
Candida albicans [9] = experiment: as §1, with “(S)-2-(6-(4-Chlorophenyl)-1-methyl-4H-benzo[f][1,2,4]triazolo-14,3-a)(1,4)diazepin-4-yl)-N-(4-(2-(hydroxyamino)-2-oxoethyl)-phenyl)acetamide” for “SAHA”; assay type: functional
Candida albicans [10] = experiment: Synergetic antifungal activity against Candida albicans 0304103 assessed as microbial growth inhibition incubated for 24 hrs in the presence of (S)-N-Hydroxy-4-((2(1-methyl-6-phenyl-4H-benzor[f](1,2,4)-triazolo-[4,3-a][1,4]diazepin 4-yl)acetamido)methyl)benzamide by checkerboard microdilution method; assay type: functional
Candida albicans [11] = experiment: Downregulation of ERG11 expression in Candida albicans 0304103 at 32 ug/mL incubated for 24 hrs by RT q-PCR analysis; assay type: functional; conditions: dose 32.0 µg/ml
Candida albicans [12] = experiment: as §1, with “(S,E)-3-(4-(2-(6-(4-Chlorophenyl)-1-methy1-4H-benzo[f][1,2,4]-triazolo(4,3-a)[1,4]diazepin-4-yl)acetamido)phenyl)-N-hydroxyacrylamide” for “SAHA”; assay type: functional
Candida albicans [13] = experiment: Synergetic antifungal activity against Candida albicans 0304103 assessed as microbial growth inhibition incubated for 24 hrs in the presence of (S)-N-Hydroxy-4-(2-(1-methyl-6-(p-toly1)-4H-benzo[f](1,2,4)-triazolo-(4,3-a][1,4]diazepin-4-yl)acetamido)benzamide by checkerboard microdilution method; assay type: functional
[Candida] auris [14] = Antifungal activity against Candida auris 0029 assessed as microbial growth inhibition; assay type: functional; conditions: Candidozyma auris
Candida albicans [15] = experiment: Antifungal activity against Candida albicans 0304103 assessed as reduction in yeast to hypha transition at 32 ug/mL incubated for 2 hrs by inverse fluorescence microscopy; assay type: functional, organism-based; conditions: dose 32.0 µg/ml
Candida albicans [16] = experiment: Downregulation of CDR2 expression in Candida albicans 0304103 at 32 ug/mL incubated for 24 hrs by RT q-PCR analysis; assay type: functional; conditions: dose 32.0 µg/ml
Candida albicans [17] = experiment: Antibiofilm activity against FLC-resistant Candida albicans 0304103 assessed as inhibition of biofilm formation at 64 ug/mL incubated for 24 hrs by XTT reduction assay; assay type: functional, organism-based; conditions: dose 64.0 µg/ml
Cryptococcus neoformans [18] = experiment: Antifungal activity against Cryptococcus neoformans H99 assessed as fungal growth inhibition incubated for 24 hrs by broth dilution method; assay type: functional
Candida albicans [19] = experiment: Antifungal activity against Candida albicans 9884 assessed as microbial growth inhibition; assay type: functional
Candida albicans [20] = experiment: as §1, with “(S)-4-(2-(6-(4-Chlorophenyl)-1-methyl-4H-benzo[f](1,2,4)-triazolo(4,3-a)(1,4)diazepin-4-yl)acetamido)-N-hydroxybenzamide” for “SAHA”; assay type: functional
Candida albicans [21] = experiment: as §1, with “(S)-4-((2-(6-(4-Chlorophenyl)-1-methyl-7,8,9,10-tetrahydro-4H-benzo-(4,5)thieno[3,2-f][1,2,4]triazolo(4,3-a)(1,4)diazepin-4-yl)-acetamido)-methyl)-N-hydroxybenzamide” for “SAHA”; assay type: functional
Cryptococcus neoformans [22] = experiment: as §2, with “Cryptococcus neoformans 011405” for “Candida auris 0029”; assay type: functional
Candida albicans [23] = experiment: Downregulation of ADH5 expression in Candida albicans 0304103 at 32 ug/mL incubated for 24 hrs by RT q-PCR analysis; assay type: functional; conditions: dose 32.0 µg/ml
Candida albicans [24] = experiment: Downregulation of MDR1 expression in Candida albicans 0304103 at 32 ug/mL incubated for 24 hrs by RT q-PCR analysis; assay type: functional; conditions: dose 32.0 µg/ml
Candida albicans [25] = experiment: as §1, with “(S)-2-(6-(4-Chlorophenyl)-1-methyl-7,8,9,10-tetrahydro-4H-benzo-(4,5)thieno[3,2-f][1,2,4]triazolo(4,3-a)(1,4)diazepin-4-yl)-N-(4-(2-(hydroxyamino)-2-oxoethyl)phenyl)acetamide” for “SAHA”; assay type: functional
Candida albicans [26] = experiment: Antifungal activity against Candida albicans 9172 assessed as microbial growth inhibition; assay type: functional
Candida albicans [27] = experiment: Downregulation of CDR1 expression in Candida albicans 0304103 at 32 ug/mL incubated for 24 hrs by RT q-PCR analysis; assay type: functional; conditions: dose 32.0 µg/ml
Candida albicans [28] = experiment: Downregulation of GCA1 expression in Candida albicans 0304103 at 32 ug/mL incubated for 24 hrs by RT q-PCR analysis; assay type: functional; conditions: dose 32.0 µg/ml
Candida albicans [29] = experiment: as §1, with “(S)-2-(8-Chloro-6-(2-chlorophenyl)-1-methyl-4H-benzo[f][1,2,4]-triazolo(4,3-a][1,4]diazepin-4-y1)-N-(4-(2-(hydroxyamino)-2-oxoethyl)-phenyl)acetamide” for “SAHA”; assay type: functional
Candida albicans [30] = experiment: as §1, with “(S)-N-Hydroxy-4-((2-(1-methyl-6-(p-toly1)-4H-benzo[f](1,2,4)-triazolo-(4,3-a][1,4]diazepin-4-y1)acetamido)methyl)benzamide” for “SAHA”; assay type: functional
Cryptococcus neoformans [31] = experiment: Antifungal activity against Cryptococcus neoformans 011405 assessed as microbial growth inhibition; assay type: functional
Candida albicans [32] = experiment: (§3) Synergetic antifungal activity against Candida albicans 9172 assessed as microbial growth inhibition incubated for 24 hrs in the presence of (S)-4-((2-(6-(4-Chlorophenyl)-1-methyl-7,8,9,10-tetrahydro-4H-benzo-(4,5)thieno[3,2-f][1,2,4]triazolo(4,3-a)(1,4)diazepin-4-yl)-acetamido)-methyl)-N-hydroxybenzamide by checkerboard microdilution method; assay type: functional
Candida albicans [33] = experiment: as §1, with “(S,E)-3-(4-(2-(6-(4-Chlorophenyl)-1-methyl-7,8,9,10-tetrahydro-4H-benzo-(4,5]thieno(3,2-f)(1,2,4)triazolo(4,3-a)(1,4]diazepin-4-yl)acetamido)pheny1)N-hydroxyacrylamide” for “SAHA”; assay type: functional
Candida albicans [34] = experiment: as §3, with “9884” for “9172”; assay type: functional
Candida albicans [35] = experiment: Antifungal activity against Candida albicans 10061 assessed as microbial growth inhibition; assay type: functional

Compound: OC(Cn1cncn1)(Cn1cncn1)c1ccc(F)cc1F [FLUCONAZOLE]
- MIC80 (Candida albicans [1]): 4 µg/mL
- MIC80 ([Candida] auris [2]): 64 µg/mL
- MIC80 (Candida albicans [3]): > 64 µg/mL
- MIC80 (Candida albicans [4]): 0.5 µg/mL
- MIC80 (Nakaseomyces glabratus): 64 µg/mL (≈ 209 µM)
- MIC80 ([Candida] auris [5]): 64 µg/mL
- MIC80 (Candida albicans [6]): 2 µg/mL
- MIC80 (Candida albicans [7]): 1 µg/mL
- Activity (Candida albicans [8]): inactive
- MIC80 (Candida albicans [9]): 16 µg/mL
- MIC80 (Candida albicans [10]): 1 µg/mL
- Activity (Candida albicans [11]): inactive
- MIC80 (Candida albicans [12]): 0.25 µg/mL
- MIC80 (Candida albicans [13]): 1 µg/mL
- MIC80 ([Candida] auris [14]): > 64 µg/mL
- Activity (Candida albicans [15]): inactive
- Activity (Candida albicans [16]): inactive
- Activity (Candida albicans [17]): inactive
- MIC80 (Cryptococcus neoformans [18]): 1 µg/mL (≈ 3.27 µM)
- MIC80 (Candida albicans [19]): 2 µg/mL (≈ 6.53 µM)
- MIC80 (Candida albicans [20]): 4 µg/mL
- MIC80 (Candida albicans [21]): 2 µg/mL
- MIC80 (Cryptococcus neoformans [22]): 2 µg/mL
- Activity (Candida albicans [23]): inactive
- Activity (Candida albicans [24]): inactive
- MIC80 (Candida albicans [25]): 0.5 µg/mL
- MIC80 (Candida albicans [26]): > 64 µg/mL
- Activity (Candida albicans [27]): inactive
- Activity (Candida albicans [28]): Active
- MIC80 (Candida albicans [29]): 1 µg/mL
- MIC80 (Candida albicans [30]): 1 µg/mL
- MIC80 (Cryptococcus neoformans [31]): 8 µg/mL (≈ 26.1 µM)
- MIC80 (Candida albicans [32]): 0.5 µg/mL
- MIC80 (Candida albicans [33]): 0.25 µg/mL
- MIC80 (Candida albicans [34]): 0.25 µg/mL
- MIC80 (Candida albicans [35]): > 64 µg/mL
